In ChEMBL document CHEMBL1151717, “In vivo active aldosterone synthase inhibitors with improved selectivity: lead optimization providing a series of pyridine substituted 3,4-dihydro-1H-quinolin-2-one derivatives” (J Med Chem, 2008):
pIC50: −log10 of the molar value.

Experiments:
CYP1A2 = target: T1, CYP1A2 (Homo sapiens, UniProt P05177); assay: Inhibition of human recombinant CYP1A2 expressed in baculovirus-infected insect microsomes at 2 uM; type: ADME, Microsome
T1 sequence (P05177 whole entry): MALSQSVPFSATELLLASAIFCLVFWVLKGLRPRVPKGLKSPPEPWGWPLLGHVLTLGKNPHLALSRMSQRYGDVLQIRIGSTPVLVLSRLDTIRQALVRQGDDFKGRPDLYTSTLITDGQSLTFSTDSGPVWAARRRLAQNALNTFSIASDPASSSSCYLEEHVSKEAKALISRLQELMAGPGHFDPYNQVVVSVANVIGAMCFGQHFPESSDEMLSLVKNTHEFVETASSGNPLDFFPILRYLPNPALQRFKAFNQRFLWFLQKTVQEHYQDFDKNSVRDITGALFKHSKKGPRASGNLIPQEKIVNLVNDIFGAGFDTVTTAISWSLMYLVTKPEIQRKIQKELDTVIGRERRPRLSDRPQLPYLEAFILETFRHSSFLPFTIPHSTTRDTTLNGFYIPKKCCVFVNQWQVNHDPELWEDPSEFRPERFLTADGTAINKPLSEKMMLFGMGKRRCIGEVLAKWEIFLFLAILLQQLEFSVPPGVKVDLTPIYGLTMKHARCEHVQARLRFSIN

[1] = target: T2, Cytochrome P450 11B2, mitochondrial (Homo sapiens, UniProt P19099)
T2 sequence (P19099 whole entry): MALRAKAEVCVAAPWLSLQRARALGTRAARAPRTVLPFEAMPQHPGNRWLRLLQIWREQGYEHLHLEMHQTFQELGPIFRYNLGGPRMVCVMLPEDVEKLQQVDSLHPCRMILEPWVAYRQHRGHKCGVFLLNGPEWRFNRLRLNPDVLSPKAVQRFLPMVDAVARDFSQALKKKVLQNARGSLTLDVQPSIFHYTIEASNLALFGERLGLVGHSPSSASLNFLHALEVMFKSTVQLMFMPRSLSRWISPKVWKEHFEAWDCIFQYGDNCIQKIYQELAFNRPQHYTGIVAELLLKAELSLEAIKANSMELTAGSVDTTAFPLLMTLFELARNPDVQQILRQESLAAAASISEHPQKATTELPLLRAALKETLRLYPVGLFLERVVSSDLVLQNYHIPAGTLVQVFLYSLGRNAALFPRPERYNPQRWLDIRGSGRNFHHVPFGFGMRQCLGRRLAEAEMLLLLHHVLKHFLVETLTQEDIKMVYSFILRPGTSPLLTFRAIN

[2] = target: T3, Cytochrome P450 11B1, mitochondrial (Homo sapiens, UniProt P15538)
T3 sequence (P15538 whole entry): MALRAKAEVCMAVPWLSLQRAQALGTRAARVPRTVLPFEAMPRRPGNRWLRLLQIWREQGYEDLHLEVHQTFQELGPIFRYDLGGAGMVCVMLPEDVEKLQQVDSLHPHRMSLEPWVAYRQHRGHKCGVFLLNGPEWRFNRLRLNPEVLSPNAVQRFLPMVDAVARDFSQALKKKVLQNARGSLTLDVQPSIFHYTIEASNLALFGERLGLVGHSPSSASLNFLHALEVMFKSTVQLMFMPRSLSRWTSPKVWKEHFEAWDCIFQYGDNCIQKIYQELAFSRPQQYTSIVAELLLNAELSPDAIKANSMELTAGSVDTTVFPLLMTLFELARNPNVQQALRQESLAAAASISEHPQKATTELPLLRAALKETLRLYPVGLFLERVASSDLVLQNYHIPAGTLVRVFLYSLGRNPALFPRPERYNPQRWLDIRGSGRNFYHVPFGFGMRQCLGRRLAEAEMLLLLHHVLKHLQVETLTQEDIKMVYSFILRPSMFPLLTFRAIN

[3] = target: T2, Cytochrome P450 11B2, mitochondrial; assay: Inhibition of human CYP11B2 expressed in hamster V79 MZh cells at 500 nM; type: cell-based; settings: V79MZh
Homo sapiens = organism: Homo sapiens; assay: Selectivity ratio, IC50 for human CYP11B1 to IC50 for human CYP11B2
CYP19 (aromatase) = target: T4, CYP19 (aromatase) (Homo sapiens, UniProt P11511); assay: Inhibition of human placental CYP19 at 500 nM; type: functional
T4 sequence (P11511 whole entry): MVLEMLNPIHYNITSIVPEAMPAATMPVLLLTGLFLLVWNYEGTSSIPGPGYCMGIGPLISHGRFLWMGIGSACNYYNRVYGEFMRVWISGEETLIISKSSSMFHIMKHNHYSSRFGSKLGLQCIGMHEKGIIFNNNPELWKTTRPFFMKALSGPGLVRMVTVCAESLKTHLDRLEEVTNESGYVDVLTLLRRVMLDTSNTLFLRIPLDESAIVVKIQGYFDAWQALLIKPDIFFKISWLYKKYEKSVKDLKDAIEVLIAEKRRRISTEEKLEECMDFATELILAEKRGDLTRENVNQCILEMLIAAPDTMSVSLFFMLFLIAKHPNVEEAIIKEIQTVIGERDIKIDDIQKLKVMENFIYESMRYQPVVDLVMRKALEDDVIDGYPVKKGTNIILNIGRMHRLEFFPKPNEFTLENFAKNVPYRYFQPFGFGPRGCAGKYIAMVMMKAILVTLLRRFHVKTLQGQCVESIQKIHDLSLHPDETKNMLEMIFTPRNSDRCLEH

Cytochrome P450 1A2 = target: T5, Cytochrome P450 1A2 (Homo sapiens, UniProt P05177)
T5 sequence (P05177 whole entry): T1 sequence (P05177 whole entry)

CYP17 = target: T6, CYP17 (Homo sapiens, UniProt P05093); assay: in vitro; settings: human CYP17 expressed in Escherichia coli
T6 sequence (P05093 whole entry): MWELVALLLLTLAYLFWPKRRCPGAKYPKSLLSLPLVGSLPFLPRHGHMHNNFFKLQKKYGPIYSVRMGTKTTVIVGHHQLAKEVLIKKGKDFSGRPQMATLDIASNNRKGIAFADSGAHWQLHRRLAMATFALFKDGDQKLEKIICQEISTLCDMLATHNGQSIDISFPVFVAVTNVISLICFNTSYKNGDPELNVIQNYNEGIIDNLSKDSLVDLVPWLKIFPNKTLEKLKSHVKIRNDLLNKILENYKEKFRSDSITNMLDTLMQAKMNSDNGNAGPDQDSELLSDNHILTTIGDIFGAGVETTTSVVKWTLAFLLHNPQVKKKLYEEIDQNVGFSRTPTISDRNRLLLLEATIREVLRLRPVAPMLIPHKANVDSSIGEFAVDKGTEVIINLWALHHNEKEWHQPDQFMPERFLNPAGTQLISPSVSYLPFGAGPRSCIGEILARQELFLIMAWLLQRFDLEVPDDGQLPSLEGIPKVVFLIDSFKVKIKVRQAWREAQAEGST
Description: Inhibition of human CYP17 expressed in Escherichia coli at 2.5 uM

Cytochrome P450 2B6 = target: T7, Cytochrome P450 2B6 (Homo sapiens, UniProt P20813); assay: Inhibition of human recombinant CYP2B6 expressed in baculovirus-infected insect microsomes; type: ADME, Microsome
T7 sequence (P20813 whole entry): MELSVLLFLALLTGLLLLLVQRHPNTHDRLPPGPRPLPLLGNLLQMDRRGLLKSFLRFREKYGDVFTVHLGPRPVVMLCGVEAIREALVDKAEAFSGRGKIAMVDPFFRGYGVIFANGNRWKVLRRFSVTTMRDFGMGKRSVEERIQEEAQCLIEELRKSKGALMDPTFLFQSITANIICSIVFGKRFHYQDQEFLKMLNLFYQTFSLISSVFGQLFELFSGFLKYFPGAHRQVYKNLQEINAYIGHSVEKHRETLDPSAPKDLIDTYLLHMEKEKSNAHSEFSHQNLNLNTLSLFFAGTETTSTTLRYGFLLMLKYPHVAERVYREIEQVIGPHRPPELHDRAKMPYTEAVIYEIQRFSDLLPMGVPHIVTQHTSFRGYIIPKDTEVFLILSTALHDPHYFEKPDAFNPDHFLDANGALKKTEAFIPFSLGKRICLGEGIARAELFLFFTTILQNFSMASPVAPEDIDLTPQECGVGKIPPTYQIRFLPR

Cytochrome P450 2C9 = Cytochrome P450 2C9 (Homo sapiens, UniProt P11712); assay: Inhibition of human recombinant CYP2C9 expressed in baculovirus-infected insect microsomes; type: ADME, Microsome
Chain of Cytochrome P450 2C9 (P11712 whole entry): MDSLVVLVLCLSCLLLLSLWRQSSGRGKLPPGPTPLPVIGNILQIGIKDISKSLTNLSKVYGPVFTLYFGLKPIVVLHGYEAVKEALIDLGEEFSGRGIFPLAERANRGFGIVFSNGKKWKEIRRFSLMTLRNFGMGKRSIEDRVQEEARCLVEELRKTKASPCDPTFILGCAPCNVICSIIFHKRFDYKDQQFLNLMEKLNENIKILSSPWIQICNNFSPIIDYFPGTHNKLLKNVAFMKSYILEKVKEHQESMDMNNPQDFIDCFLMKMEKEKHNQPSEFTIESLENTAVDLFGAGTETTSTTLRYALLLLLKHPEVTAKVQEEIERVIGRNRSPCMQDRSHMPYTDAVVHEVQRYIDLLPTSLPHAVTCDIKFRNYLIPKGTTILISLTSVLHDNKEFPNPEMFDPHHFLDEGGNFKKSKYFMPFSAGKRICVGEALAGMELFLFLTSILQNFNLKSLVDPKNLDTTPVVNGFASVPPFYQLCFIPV

Cytochrome P450 2C19 = Cytochrome P450 2C19 (Homo sapiens, UniProt P33261); assay: Inhibition of human recombinant CYP2C19 expressed in baculovirus-infected insect microsomes; type: ADME, Microsome
Chain of Cytochrome P450 2C19 (P33261 whole entry): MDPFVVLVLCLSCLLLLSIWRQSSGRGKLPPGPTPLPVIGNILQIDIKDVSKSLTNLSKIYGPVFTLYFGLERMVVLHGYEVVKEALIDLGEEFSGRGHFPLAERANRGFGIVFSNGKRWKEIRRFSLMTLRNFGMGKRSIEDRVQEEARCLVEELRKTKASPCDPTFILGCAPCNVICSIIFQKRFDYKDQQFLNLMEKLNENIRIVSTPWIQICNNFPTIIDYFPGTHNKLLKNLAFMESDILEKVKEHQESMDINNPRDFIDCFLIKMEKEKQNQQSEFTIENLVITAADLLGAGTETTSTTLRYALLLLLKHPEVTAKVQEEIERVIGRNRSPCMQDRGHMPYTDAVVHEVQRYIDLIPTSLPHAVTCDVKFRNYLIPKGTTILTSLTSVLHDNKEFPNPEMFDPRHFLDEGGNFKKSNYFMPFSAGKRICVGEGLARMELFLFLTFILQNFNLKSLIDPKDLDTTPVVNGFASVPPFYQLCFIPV

Cytochrome P450 2D6 = Cytochrome P450 2D6 (Homo sapiens, UniProt P10635); assay: Inhibition of human recombinant CYP2D6 expressed in baculovirus-infected insect microsomes; type: ADME, Microsome
Chain of Cytochrome P450 2D6 (P10635 whole entry): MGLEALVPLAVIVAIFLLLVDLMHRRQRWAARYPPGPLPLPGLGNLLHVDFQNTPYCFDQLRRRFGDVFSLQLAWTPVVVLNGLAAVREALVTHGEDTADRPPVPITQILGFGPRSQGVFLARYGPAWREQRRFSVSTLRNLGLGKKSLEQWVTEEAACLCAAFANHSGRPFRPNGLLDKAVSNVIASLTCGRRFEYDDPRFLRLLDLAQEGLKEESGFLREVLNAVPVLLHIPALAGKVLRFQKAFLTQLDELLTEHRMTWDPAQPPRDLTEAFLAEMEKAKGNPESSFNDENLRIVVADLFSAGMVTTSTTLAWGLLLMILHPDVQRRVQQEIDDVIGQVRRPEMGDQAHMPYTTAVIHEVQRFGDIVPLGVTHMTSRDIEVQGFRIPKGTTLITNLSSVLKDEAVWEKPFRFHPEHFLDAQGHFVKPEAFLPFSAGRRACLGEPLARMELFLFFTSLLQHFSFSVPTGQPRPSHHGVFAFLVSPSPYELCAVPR

Cytochrome P450 3A4 = Cytochrome P450 3A4 (Homo sapiens, UniProt P08684); assay: Inhibition of human recombinant CYP3A4 expressed in baculovirus-infected insect microsomes; type: ADME, Microsome
Chain of Cytochrome P450 3A4 (P08684 whole entry): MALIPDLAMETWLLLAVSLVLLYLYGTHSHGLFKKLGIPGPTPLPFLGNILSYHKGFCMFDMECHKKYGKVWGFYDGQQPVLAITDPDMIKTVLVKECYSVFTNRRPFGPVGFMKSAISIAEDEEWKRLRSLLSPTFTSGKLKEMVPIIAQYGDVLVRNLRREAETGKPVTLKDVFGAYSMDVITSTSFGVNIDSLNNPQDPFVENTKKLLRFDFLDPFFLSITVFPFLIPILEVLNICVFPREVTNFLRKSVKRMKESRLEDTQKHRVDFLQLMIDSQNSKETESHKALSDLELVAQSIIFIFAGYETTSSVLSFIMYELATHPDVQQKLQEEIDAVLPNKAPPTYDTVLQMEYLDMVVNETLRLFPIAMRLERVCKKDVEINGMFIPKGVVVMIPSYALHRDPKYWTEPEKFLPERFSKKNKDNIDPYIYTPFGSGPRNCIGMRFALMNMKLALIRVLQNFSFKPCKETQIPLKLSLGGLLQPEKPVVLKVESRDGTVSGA

[4] = Terminal half life in Wistar rat at 5 mg/kg, po by cassette dosing; type: ADME, organism-based; parameters: dose 5 mg/kg, route oral; settings: in vivo, read-out: beta t1/2 (converted)
[5] = Cmax in Wistar rat at 5 mg/kg, po by cassette dosing; type: ADME, organism-based; parameters: dose 5 mg/kg, route oral; settings: in vivo
[6] = AUC (0 to infinity) in Wistar rat at 5 mg/kg, po by cassette dosing; type: ADME, organism-based; parameters: time infinity, dose 5 mg/kg, route oral; settings: plasma

Structure (SMILES) | inhibition at 2 µM (CYP1A2) | pIC50 [1] | pIC50 [2] | inhibition at 0.5 µM [3] | Ratio IC50 (Homo sapiens) | inhibition at 0.5 µM (CYP19 (aromatase)) | pIC50 (Cytochrome P450 1A2) | inhibition at 2.5 µM (CYP17) | further results
O=C1Cc2cc(-c3cccnc3)ccc2N1 | 25% |  |  |  |  |  |  |  | 
O=C1CSc2cc(-c3cccnc3)ccc2N1 |  | 7.92 | 6.28 |  |  |  |  |  | 
COc1cncc(-c2ccc3c(c2)CCC(=O)N3)c1 | 25% | 8.57 | 6.47 | 91% | 126 | < 5% | 5.28 | 12% | 
O=C1CCc2cc(-c3cccnc3)cc(Cl)c2N1 | 14% |  |  |  |  | 17% | 4.51 | 7% | 
N#Cc1ccc(C2CCCc3cncn32)cc1 (stereo unspecified) [FADROZOLE] |  |  |  |  |  |  |  |  | half-life [4]: 3.2 h; Cmax [5]: 471 ng/mL; AUC(0-inf) [6]: 3210 ng·h/mL
CCN1C(=O)CCc2cc(-c3cccnc3)ccc21 | 36% | 7.66 | 5.29 |  |  | 63% | 5.46 | < 5% | 
c1cncc(-c2ccc3ccccc3c2)c1 | 99% |  |  |  |  |  |  | 40% | 
S=C1CCc2cc(-c3cccnc3)cc(Cl)c2N1 |  | 8.38 | 6.11 | 97% | 183 |  |  |  | 
CN1C(=O)CCc2cc(-c3cncc4ccccc34)ccc21 |  | 10.00 | 8.16 |  |  |  |  |  | 
CN1CCOc2cc(-c3cccnc3)ccc21 |  | 7.00 | 5.22 | 71% | 59 |  |  |  | 
COc1cncc(-c2ccc3c(c2)CCC(=O)N3C)c1 | 20% |  |  |  |  | 5% | 4.78 | < 5% | 

Further lines, with some results ahead:

inhibition at 2 µM (CYP1A2) | pIC50 [1] | pIC50 [2] | inhibition at 0.5 µM [3] | Ratio IC50 (Homo sapiens) | inhibition at 0.5 µM (CYP19 (aromatase)) | pIC50 (Cytochrome P450 1A2) | inhibition at 2.5 µM (CYP17) | Structure (SMILES) | further results
 | 7.54 | 5.70 | 82% | 68 |  |  |  | c1cncc(-c2ccc3c(c2)CCCC3)c1 | 
80% | 8.48 |  | 97% | 347 | 22% |  | 44% | COC1CCc2cc(-c3cccnc3)ccc2C1 (stereo unspecified) | pIC50 (Cytochrome P450 2B6): 4.32; pIC50 (Cytochrome P450 2C9): 4.79; IC50 (Cytochrome P450 2C19): < 200000 nM; IC50 (Cytochrome P450 2D6): < 200000 nM; pIC50 (Cytochrome P450 3A4): 4.91
77% | 8.51 | 6.24 |  |  | < 5% | 6.19 | 72% | S=C1CCc2cc(-c3cccnc3)ccc2N1 | 
73% |  |  |  |  |  | 6.21 |  | CCOC1CCc2cc(-c3cccnc3)ccc2C1 (stereo unspecified) | 
72% |  |  |  |  |  | 6.18 |  | N#CC1CCc2cc(-c3cccnc3)ccc2C1 (stereo unspecified) | 
90% | 8.80 | 6.54 | 97% | 181 | < 5% | 6.74 | 74% | N#CC1=Cc2ccc(-c3cccnc3)cc2CC1 | 
74% | 7.36 | 5.31 | 86% | 112 | 23% | 6.22 | 49% | OC1CCc2cc(-c3cccnc3)ccc2C1 (stereo unspecified) | 
